# Experimental data taken from patent US20250262201A1, “COMPOUNDS AND METHODS USEFUL FOR STABILIZING PHENYLALANINE HYDROXYLASE MUTATIONS” (Agios Pharmaceuticals, Inc., priority 2022, published 2025).
# Counter-ions that a name gives are not always drawn.
# Target: T1, human PAH with the R408W mutation (Homo sapiens, UniProt P00439, R408W)
# T1 construct: expressed in transfected cells
# T1 sequence (P00439 1-452 R408W): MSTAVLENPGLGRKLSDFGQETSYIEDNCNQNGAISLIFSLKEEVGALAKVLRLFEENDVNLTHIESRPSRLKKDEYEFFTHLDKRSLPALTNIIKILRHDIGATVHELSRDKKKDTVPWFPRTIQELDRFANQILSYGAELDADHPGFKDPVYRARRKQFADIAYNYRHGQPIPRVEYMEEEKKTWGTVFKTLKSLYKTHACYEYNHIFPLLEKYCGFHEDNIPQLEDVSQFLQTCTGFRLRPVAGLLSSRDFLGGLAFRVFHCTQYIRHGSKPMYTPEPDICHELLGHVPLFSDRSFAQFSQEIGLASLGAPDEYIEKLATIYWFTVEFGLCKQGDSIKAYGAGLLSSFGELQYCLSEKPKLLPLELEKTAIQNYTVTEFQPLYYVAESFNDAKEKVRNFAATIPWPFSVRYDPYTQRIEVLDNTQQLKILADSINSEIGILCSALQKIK
# Experiment: Cell Based Phenylalanine Flux Assay
# Set-up: scale not given here
# Details: A375 R408W cells, 24 hrs with compound, then 20 μM sepiapterin and 800 μM 13C9,15N-Phenylalanine for 4 hours; 13C-Tyrosine by LC-MS; average where tested multiple times
row,AC50,SMILES
1,"E, E","CC1CN(C(=O)c2ocnc2C(F)(F)F)C(c2cc3ccccc3cn2)c2nc[nH]c21 [(4S, 7R) diastereomer of 3-[7-methyl-5-[4-(trifluoromethyl)-]"
2,"E, E","CC1CN(C(=O)c2oc(C(C)(C)O)nc2C(F)(F)F)C(c2cc3ccccc3cn2)c2nc[nH]c21 [(4S, 7S) diastereomer of (2-(2-hydroxypropan-2-yl)-4-(triflu]"
3,"E, E","COCCNc1nnc(C(=O)N2CC(C)c3[nH]cnc3C2c2cc3ccccc3cn2)o1 [(4S, 7R) diastereomer of 5-[4-(isoquinolin-3-yl)-7-methyl-1H]"

# Same assay, conditions: A375 R408W cells, 24 hrs with compound, then 20 μM sepiapterin and 800 μM 13C9,15N-Phenylalanine for 4 hours; 13C-Tyrosine by LC-MS; average where tested multiple times; read-out: AC50
row,AC50 [nM],SMILES
1,1000 to 5000,FC(F)c1nnc(N2CCc3[nH]cnc3C2c2ccc3ccccc3n2)o1 (stereo not shown)
2,1000 to 5000,Cn1cc(-c2ncc(C(=O)N3CCc4[nH]cnc4C3c3ccc4ccccc4n3)o2)cn1 (stereo not shown)
3,> 5000,Cn1nc(C(C)(C)O)cc1C(=O)N1CCc2[nH]cnc2C1c1ccc2ccccc2n1 (stereo not shown)
4,1000 to 5000,O=C(CCc1ccccc1)N1CCc2[nH]cnc2C1c1cn2ccccc2n1 (stereo not shown)
5,1000 to 5000,O=C(CCc1nccs1)N1CCc2[nH]cnc2C1c1cn2ccccc2n1 (stereo not shown)
6,1000 to 5000,Cc1ncoc1C(=O)N1CC2(CC2)c2[nH]cnc2C1c1cn2ccccc2n1 (stereo not shown)
7,1000 to 5000,O=C(c1oc(-c2ccccn2)nc1C1CC1)N1CCCc2[nH]cnc2C1c1ccc2ccccc2n1 (stereo not shown)
8,> 5000,O=C(c1nnc(-c2ccccn2)o1)N1CCCc2[nH]cnc2C1c1ccc2ccccc2n1 (stereo not shown)
9,1000 to 5000,O=C(c1nnc(-c2ccccn2)o1)N1CCc2[nH]cnc2C1c1cn2ccccc2n1 (stereo not shown)
10,1000 to 5000,CC1CN(C(=O)c2nnc(C(C)(C)O)o2)C(c2cc3ccccc3cn2)c2nc[nH]c21 (stereo not shown)
11,1000 to 5000,CN1CCN(c2nnc(C(=O)N3CCc4[nH]cnc4C3c3ncc4ccccc4n3)o2)CC1 (stereo not shown)
12,1000 to 5000,"O=C(C1CN(c2ccccn2)C1)N1CCc2[nH]cnc2C1c1cc2ccccc2cn1 (single isomer, unassigned)"
13,1000 to 5000,O=C(CCc1nc2ccccc2o1)N1CCc2[nH]cnc2C1c1cn2ccccc2n1 (stereo not shown)
14,1000 to 5000,COCCNc1nnc(C(=O)N2CCc3[nH]cnc3C2c2ccc3ccccc3n2)o1 (stereo not shown)

row,SMILES,AC50 [nM]
1,"Cc1nc(C(C)(C)O)oc1C(=O)N1CCc2[nH]cnc2[C@H]1c1cc2ccccc2cn1 (single isomer, unassigned)",1000 to 5000

# Same assay, conditions: A375 cells expressing human R408W PAH; 24 hrs compound incubation; 13C-Tyrosine by LC-MS; average where tested multiple times; read-out: AC50
row,SMILES,AC50 [nM]
1,"Cc1nc(C(C)(C)F)oc1C(=O)N1CCc2[nH]cnc2C1c1ccc2ccccc2n1 (stereo in doubt) [Example 22, (R)-(2-(2-fluoropropan-2-yl)-4-methyloxazol-5-yl)(4-(quinolin-2-yl)-6,7-dihydro-1H-imidazo[4,5-c]pyridin-5(4H)-yl)methanone]",< 500
2,"Cn1cc(C(=O)N2CCc3[nH]cnc3C2c2ccc3ccccc3n2)c(C(F)F)n1 (stereo in doubt) [Example 84, (S)-(3-(difluoromethyl)-1-methyl-1H-pyrazol-4-yl)(4-(quinolin-2-yl)-6,7-dihydro-1H-imidazo[4,5-c]pyridin-5(4H)-yl)methanone]",1000 to 5000
3,"N#Cc1ncoc1C(=O)N1CCc2[nH]cnc2C1c1ccc2ccccc2n1 (stereo in doubt) [Example 57, (R)-5-(4-(quinolin-2-yl)-4,5,6,7-tetrahydro-1H-imidazo[4,5-c]pyridine-5-carbonyl)oxazole-4-carbonitrile]",< 500
4,"Fc1ccc(-c2nnc(N3CCc4[nH]cnc4C3c3ccc4ccccc4n3)o2)cc1 (stereo in doubt) [Example 20, (R)-2-(4-fluorophenyl)-5-(4-(quinolin-2-yl)-6,7-dihydro-1H-imidazo[4,5-c]pyridin-5(4H)-yl)-1,3,4-oxadiazole]",500 to 1000
5,"FC(F)(F)c1cnc(N2CCc3[nH]cnc3C2c2ccc3ccccc3n2)nc1 (stereo in doubt) [Example 30, (S)-2-(5-(5-(trifluoromethyl)pyrimidin-2-yl)-4,5,6,7-tetrahydro-1H-imidazo[4,5-c]pyridin-4-yl)quinoline]",> 5000

# Continued, values first:
row,AC50 [nM],SMILES
1,< 500,"O=C(c1cnn2cc(-c3cncnc3)ccc12)N1CCc2[nH]cnc2[C@H]1c1cc2ccccc2cn1 [Example 487, (R)-(4-(isoquinolin-3-yl)-6,7-dihydro-1H-imidazo[4,5-c]pyridin-5(4H)-yl)(6-(pyrimidin-5-yl)pyrazolo[1,5-a]pyridin-3-yl)methanone]"
2,> 5000,"CN(C)c1nnc(C(=O)N2CCc3[nH]cnc3[C@@H]2c2cc3ccccc3cn2)o1 [Example 367, (S)-(5-(dimethylamino)-1,3,4-oxadiazol-2-yl)(4-(isoquinolin-3-yl)-6,7-dihydro-1H-imidazo[4,5-c]pyridin-5(4H)-yl)methanone]"
3,500 to 1000,"C[C@H]1CN(C(=O)c2nnc(C(C)(C)F)o2)[C@H](c2cc3ccccc3cn2)c2nc[nH]c21 [Example 499, (5-(2-fluoropropan-2-yl)-1,3,4-oxadiazol-2-yl)((4R,7S)-4-(isoquinolin-3-yl)-7-methyl-6,7-dihydro-1H-imidazo[4,5-c]pyridin-5(4H)-yl)methanone]"
4,> 5000,"O=C(c1cnn2ccccc12)N1CCc2[nH]cnc2[C@@H]1c1cn2ccccc2n1 [Example 226, (S)-(4-(imidazo[1,2-a]pyridin-2-yl)-6,7-dihydro-1H-imidazo[4,5-c]pyridin-5(4H)-yl)(pyrazolo[1,5-a]pyridin-3-yl)methanone]"
5,< 500,"O=C(c1nnc(-c2cc(C(F)(F)F)ccn2)o1)N1CCc2[nH]cnc2[C@H]1c1ncc2ccccc2n1 [Example 173, (S)-(4-(quinazolin-2-yl)-6,7-dihydro-1H-imidazo[4,5-c]pyridin-5(4H)-yl)(5-(4-(trifluoromethyl)pyridin-2-yl)-1,3,4-oxadiazol-2-yl)methanone]"
6,500 to 1000,"O=C(CCc1nccs1)N1CCc2[nH]cnc2[C@H]1c1ccc2ccccc2c1 [Example 219, (R)-1-(4-(naphthalen-2-yl)-6,7-dihydro-1H-imidazo[4,5-c]pyridin-5(4H)-yl)-3-(thiazol-2-yl)propan-1-one]"
7,> 5000,"CC(F)(F)c1ncc(C(=O)N2CCc3[nH]cnc3[C@@H]2c2cn3ccccc3n2)s1 (single isomer, unassigned) [Example 235]"
8,1000 to 5000,"C[C@H]1CN(C(=O)c2ocnc2C2CC2)[C@@H](c2cc3ccccc3cn2)c2nc[nH]c21 [Example 507, (4-cyclopropyloxazol-5-yl)((4S,7S)-4-(isoquinolin-3-yl)-7-methyl-6,7-dihydro-1H-imidazo[4,5-c]pyridin-5(4H)-yl)methanone]"
9,< 500,"O=C(c1oc(C2CC2)nc1C(F)(F)F)N1CCc2[nH]cnc2[C@H]1c1cn2ccccc2n1 [Example 240, (R)-(2-cyclopropyl-4-(trifluoromethyl)oxazol-5-yl)(4-(imidazo[1,2-a]pyridin-2-yl)-6,7-dihydro-1H-imidazo[4,5-c]pyridin-5(4H)-yl)methanone]"
10,500 to 1000,"O=C(c1cnc(-c2ccccn2)s1)N1CCc2[nH]cnc2[C@H]1c1cc2ccccc2nn1 [Example 205, (S)-(4-(cinnolin-3-yl)-6,7-dihydro-1H-imidazo[4,5-c]pyridin-5(4H)-yl)(2-(pyridin-2-yl)thiazol-5-yl)methanone]"
11,> 5000,"O=C(c1nnc(C2CC2)o1)N1CCc2[nH]cnc2C1c1cc2ccccc2cn1 (stereo in doubt) [Example 327, (S)-(5-cyclopropyl-1,3,4-oxadiazol-2-yl)(4-(isoquinolin-3-y1)-6,7-dihydro-1H-imidazo[4,5-c]pyridin-5(4H)-yl)methanone]"
12,< 500,"CC(F)(F)c1ncc(C(=O)N2CCc3[nH]cnc3[C@H]2c2cc3ccccc3cn2)s1 [Example 376, (R)-(2-(1,1-difluoroethyl)thiazol-5-yl)(4-(isoquinolin-3-yl)-6,7-dihydro-1H-imidazo[4,5-c]pyridin-5(4H)-yl)methanone hydrochloride]"
13,< 500,"O=C(c1nnc(-c2cnn(C3CCC3)c2)o1)N1CCc2[nH]cnc2[C@H]1c1ncc2ccccc2n1 [Example 187, (S)-(5-(1-cyclobutyl-1H-pyrazol-4-yl)-1,3,4-oxadiazol-2-yl)(4-(quinazolin-2-yl)-6,7-dihydro-1H-imidazo[4,5-c]pyridin-5(4H)-yl)methanone]"
14,500 to 1000,"CC(C)(C)c1ncc(C(=O)N2CCc3[nH]cnc3[C@H]2c2cn3ccccc3n2)o1 [Example 250, (R)-(2-(tert-butyl)oxazol-5-yl)(4-(imidazo[1,2-a]pyridin-2-yl)-6,7-dihydro-1H-imidazo[4,5-c]pyridin-5(4H)-yl)methanone]"
15,> 5000,"O=C(c1nnc(-c2ncccc2F)o1)N1CCc2[nH]cnc2[C@@H]1c1ncc2ccccc2n1 [Example 164, (R)-(5-(3-fluoropyridin-2-yl)-1,3,4-oxadiazol-2-yl)(4-(quinazolin-2-yl)-6,7-dihydro-1H-imidazo[4,5-c]pyridin-5(4H)-yl)methanone]"
16,< 500,"O=C(c1cnc(-c2cnn(CC(F)(F)F)c2)o1)N1CCc2[nH]cnc2[C@H]1c1cc2ccccc2cn1 [Example 305, (R)-(4-(isoquinolin-3-yl)-6,7-dihydro-1H-imidazo[4,5-c]pyridin-5(4H)-yl)(2-(1-(2,2,2-trifluoroethyl)-1H-pyrazol-4-yl)oxazol-5-yl)methanone]"
17,< 500,"Cn1nccc1C(=O)N1CCc2[nH]cnc2C1c1ccc2ccccc2n1 (stereo in doubt) [Example 93, (R)-(1-methyl-1H-pyrazol-5-yl)(4-(quinolin-2-yl)-6,7-dihydro-1H-imidazo[4,5-c]pyridin-5(4H)-yl)methanone]"
